According to patent US9637473B2, “Acrylamide derivatives as antimalarial agents” (priority 2013, dated 2017):

Tested on: P. Falciparum NF54
Experiment: Plasmodium falciparum in vitro assay ([3H]-hypoxanthine incorporation)
Format: cell-based
Conditions: Plasmodium falciparum, Erythrocyte, P. Falciparum NF54, erythrocytic stages in human red blood cells, 50% human serum
Method in brief: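 This in vitro antimalarial assay used P. falciparum erythrocytic stages cultured in human erythrocytes and measured [3H]-hypoxanthine incorporation. Radioactivity on the dried filters, placed in plastic foil with 10 mL scintillation fluid, was counted in a Betaplate liquid scintillation counter. Sigmoidal inhibition curves built in Microsoft Excel gave the IC50.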

| IC50 [nM] | SMILES |
| --- | --- |
| 58 | CN(c1ccncc1)c1ccc(CN(C(=O)/C=C/c2ccc(C(F)(F)F)nc2)C2CCN(Cc3ccccc3)CC2)cc1 [Example 161, (E)-N-(1-Benzyl-piperidin-4-yl)-N-[4-(methyl-pyridin-4-yl-amino)-benzyl]-3-(6-trifluoromethyl-pyridin-3-yl)-acrylamide] |
| 160 | CN(c1ccncc1)c1ccc(CN(C(=O)/C=C/c2ccc(S(C)(=O)=O)cc2)C2CCN(Cc3ccccc3)CC2)cc1 [Example 162, (E)-N-(1-Benzyl-piperidin-4-yl)-3-(4-methanesulfonyl-phenyl)-N-[4-(methyl-pyridin-4-yl-amino)-benzyl]-acrylamide] |
| 68 | Cc1cc(Nc2ccc(CN(CCCN(C)C)C(=O)/C=C/c3ccc(C(F)(F)F)cc3)cc2)ccn1 [Example 166, (E)-N-(3-Dimethylamino-propyl)-N-[4-(2-methyl-pyridin-4-ylamino)-benzyl]-3-(4-trifluoromethyl-phenyl)-acrylamide] |
| 110 | Cc1cc(Nc2ccc(CN(CCCN(C)C)C(=O)/C=C/c3ccc(Cl)cc3)cc2)ccn1 [Example 167, (E)-3-(4-Chloro-phenyl)-N-(3-dimethylamino-propyl)-N-[4-(2-methyl-pyridin-4-ylamino)-benzyl]-acrylamide] |
| 42 | Cc1cc(Nc2ccc(CN(C(=O)/C=C/c3ccc(C(F)(F)F)cc3)C3CCN(C4CCCC4)CC3)cn2)ccn1 [Example 168, (E)-N-(1-Cyclopentyl-piperidin-4-yl)-N-[6-(2-methyl-pyridin-4-ylamino)-pyridin-3-ylmethyl]-3-(4-trifluoromethyl-phenyl)-acrylamide] |
| 134 | Cc1cc(Nc2ccc(CN(C(=O)/C=C/c3ccc(Cl)cc3)C3CCN(C4CCCC4)CC3)cn2)ccn1 [Example 169, (E)-3-(4-Chloro-phenyl)-N-(1-cyclopentyl-piperidin-4-yl)-N-[6-(2-methyl-pyridin-4-ylamino)-pyridin-3-ylmethyl]-acrylamide] |
| 67 | Cc1cc(Nc2ccc(CN(C(=O)/C=C/c3ccc(C(F)(F)F)cc3)C3CCN(C4CCCC4)CC3)nc2)ccn1 [Example 170, (E)-N-(1-Cyclopentyl-piperidin-4-yl)-N-[5-(2-methyl-pyridin-4-ylamino)-pyridin-2-ylmethyl]-3-(4-trifluoromethyl-phenyl)-acrylamide] |
| 134 | Cc1cc(Nc2ccc(CN(C(=O)/C=C/c3ccc(Cl)cc3)C3CCN(C4CCCC4)CC3)nc2)ccn1 [Example 171, (E)-3-(4-Chloro-phenyl)-N-(1-cyclopentyl-piperidin-4-yl)-N-[5-(2-methyl-pyridin-4-ylamino)-pyridin-2-ylmethyl]-acrylamide] |
| 178 | Cc1cc(Nc2ccc(CN(CC3CCN(C4CCN(C)CC4)CC3)C(=O)/C=C/c3ccc(C(F)(F)F)cc3)cc2)ccn1 [Example 172, (E)-N-(1′-Methyl-[1,4′]bipiperidinyl-4-ylmethyl)-N-[4-(2-methyl-pyridin-4-ylamino)-benzyl]-3-(4-trifluoromethyl-phenyl)-acrylamide] |
| 355 | Cc1cc(Nc2ccc(CN(CCCN3CCOCC3)C(=O)/C=C/c3ccc(C(F)(F)F)cc3)cc2)ccn1 [Example 173, (E)-N-[4-(2-Methyl-pyridin-4-ylamino)-benzyl]-N-(3-morpholin-4-yl-propyl)-3-(4-trifluoromethyl-phenyl)-acrylamide] |
| 67 | Cc1cc(Nc2ccc(CN(C(=O)/C=C/c3ccc(C(F)(F)F)cc3)C3CCN(C)CC3)cc2)ccn1 [Example 174, (E)-N-(1-Methyl-piperidin-4-yl)-N-[4-(2-methyl-pyridin-4-ylamino)-benzyl]-3-(4-trifluoromethyl-phenyl)-acrylamide] |
| 334 | Cc1cc(Nc2ccc(CN(CC3(O)CCN(C)CC3)C(=O)/C=C/c3ccc(C(F)(F)F)cc3)cc2)ccn1 [Example 175, (E)-N-(4-Hydroxy-1-methyl-piperidin-4-ylmethyl)-N-[4-(2-methyl-pyridin-4-ylamino)-benzyl]-3-(4-trifluoromethyl-phenyl)-acrylamide] |
| 58 | Cc1cc(Nc2ccc(CN(CCN(C)C)C(=O)/C=C/c3ccc(C(F)(F)F)cc3)cc2)ccn1 [Example 176, (E)-N-(2-Dimethylamino-ethyl)-N-[4-(2-methyl-pyridin-4-ylamino)-benzyl]-3-(4-trifluoromethyl-phenyl)-acrylamide] |
| 238 | CN1CCC(N(C)c2ccc(CN(C(=O)/C=C/c3ccc(C(F)(F)F)cc3)C3CCN(Cc4ccccc4)CC3)cc2)CC1 [Example 177, (E)-N-(1-Benzyl-piperidin-4-yl)-N-{4-[methyl-(1-methyl-piperidin-4-yl)-amino]-benzyl}-3-(4-trifluoromethyl-phenyl)-acrylamide] |
| 343 | CN1CCC(N(C)c2ccc(CN(C(=O)/C=C/c3ccc(OC(F)(F)F)cc3)C3CCN(Cc4ccccc4)CC3)cc2)CC1 [Example 178, (E)-N-(1-Benzyl-piperidin-4-yl)-N-{4-[methyl-(1-methyl-piperidin-4-yl)-amino]-benzyl}-3-(4-trifluoromethoxy-phenyl)-acrylamide] |
| 54 | CN1CCC(N2CCC(N(Cc3ccc(N(C)c4ccncc4)cc3)C(=O)/C=C/c3ccc(C#N)cc3)CC2)CC1 [Example 179, (E)-3-(4-Cyano-phenyl)-N-(1′-methyl-[1,4′]bipiperidinyl-4-yl)-N-[4-(methyl-pyridin-4-yl-amino)-benzyl]-acrylamide] |
| 21 | CN1CCC(N2CCC(N(Cc3ccc(N(C)c4ccncc4)cc3)C(=O)/C=C/c3ccc(Cl)cc3)CC2)CC1 [Example 180, (E)-3-(4-Chloro-phenyl)-N-(1′-methyl-[1,4′]bipiperidinyl-4-yl)-N-[4-(methyl-pyridin-4-yl-amino)-benzyl]-acrylamide] |
| 36 | CN1CCC(N2CCC(N(Cc3ccc(N(C)c4ccncc4)cc3)C(=O)/C=C/c3ccc(OC(F)F)cc3)CC2)CC1 [Example 181, (E)-3-(4-Difluoromethoxy-phenyl)-N-(1′-methyl-[1,4′]bipiperidinyl-4-yl)-N-[4-(methyl-pyridin-4-yl-amino)-benzyl]-acrylamide] |
| 69 | CN1CCC(N2CCC(N(Cc3ccc(N(C)c4ccncc4)cc3)C(=O)/C=C/c3ccccc3)CC2)CC1 [Example 182, (E)-N-(1′-Methyl-[1,4′]bipiperidinyl-4-yl)-N-[4-(methyl-pyridin-4-yl-amino)-benzyl]-3-phenyl-acrylamide] |
| 49 | CN1CCC(N2CCC(N(Cc3ccc(N(C)c4ccncc4)cc3)C(=O)/C=C/c3ccc(C(F)(F)F)nc3)CC2)CC1 [Example 183, (E)-N-(1′-Methyl-[1,4′]bipiperidinyl-4-yl)-N-[4-(methyl-pyridin-4-yl-amino)-benzyl]-3-(6-trifluoromethyl-pyridin-3-yl)-acrylamide] |
| 44 | Cc1cc(N(C)c2ccc(CN(C(=O)/C=C/c3ccc(C(F)(F)F)cc3)C3CCN(C4CCCC4)CC3)cc2)ccn1 [Example 184, (E)-N-(1-Cyclopentyl-piperidin-4-yl)-N-{4-[methyl-(2-methyl-pyridin-4-yl)-amino]-benzyl}-3-(4-trifluoromethyl-phenyl)-acrylamide] |
| 39 | CCN(CC)Cc1cc(Nc2ccc(CN(C(=O)/C=C/c3ccc(C(F)(F)F)cc3)C3CCN(C)CC3)cc2)ccc1O [Example 185, (E)-N-[4-(3-Diethylaminomethyl-4-hydroxy-phenylamino)-benzyl]-N-(1-methyl-piperidin-4-yl)-3-(4-trifluoromethyl-phenyl)-acrylamide] |

| SMILES | IC50 [nM] |
| --- | --- |
| CN(c1ccncc1)c1ccc(CN(C(=O)/C=C/c2cccc(F)c2)C2CCN(Cc3ccccc3)CC2)cc1 [Example 156, (E)-N-(1-Benzyl-piperidin-4-yl)-3-(3-fluoro-phenyl)-N-[4-(methyl-pyridin-4-yl-amino)-benzyl]-acrylamide] | 101 |
| CN(c1ccncc1)c1ccc(CN(C(=O)/C=C/c2ccccc2F)C2CCN(Cc3ccccc3)CC2)cc1 [Example 157, (E)-N-(1-Benzyl-piperidin-4-yl)-3-(2-fluoro-phenyl)-N-[4-(methyl-pyridin-4-yl-amino)-benzyl]-acrylamide] | 190 |
| Cc1ccc(/C=C/C(=O)N(Cc2ccc(N(C)c3ccncc3)cc2)C2CCN(Cc3ccccc3)CC2)cc1 [Example 158, (E)-N-(1-Benzyl-piperidin-4-yl)-N-[4-(methyl-pyridin-4-yl-amino)-benzyl]-3-p-tolyl-acrylamide] | 190 |
| Cc1cccc(/C=C/C(=O)N(Cc2ccc(N(C)c3ccncc3)cc2)C2CCN(Cc3ccccc3)CC2)c1 [Example 159, (E)-N-(1-Benzyl-piperidin-4-yl)-N-[4-(methyl-pyridin-4-yl-amino)-benzyl]-3-m-tolyl-acrylamide] | 195 |
| Cc1ccccc1/C=C/C(=O)N(Cc1ccc(N(C)c2ccncc2)cc1)C1CCN(Cc2ccccc2)CC1 [Example 160, (E)-N-(1-Benzyl-piperidin-4-yl)-N-[4-(methyl-pyridin-4-yl-amino)-benzyl]-3-o-tolyl-acrylamide] | 167 |
| Cc1nc(C)c(/C=C/C(=O)N(Cc2ccc(N(C)c3ccncc3)cc2)C2CCN(Cc3ccccc3)CC2)s1 [Example 163, (E)-N-(1-Benzyl-piperidin-4-yl)-3-(2,4-dimethyl-thiazol-5-yl)-N-[4-(methyl-pyridin-4-yl-amino)-benzyl]-acrylamide] | 289 |
| Cc1c(/C=C/C(=O)N(Cc2ccc(N(C)c3ccncc3)cc2)C2CCN(Cc3ccccc3)CC2)cnn1C [Example 164, (E)-N-(1-Benzyl-piperidin-4-yl)-3-(1,5-dimethyl-1H-pyrazol-4-yl)-N-[4-(methyl-pyridin-4-yl-amino)-benzyl]-acrylamide] | 368 |
| Cc1nn(C)c(C)c1/C=C/C(=O)N(Cc1ccc(N(C)c2ccncc2)cc1)C1CCN(Cc2ccccc2)CC1 [Example 165, (E)-N-(1-Benzyl-piperidin-4-yl)-N-[4-(methyl-pyridin-4-yl-amino)-benzyl]-3-(1,3,5-trimethyl-1H-pyrazol-4-yl)-acrylamide] | 192 |
